{"source": "patent US6096711A", "about": "“Hsp72 induction and applications” (priority 1998, dated 2000)", "key": {"[1]": {"tested_on": "Hsp72", "experiment": "Hsp72 induction in young and old IMR90 cells", "format": "cell-based, Human", "conditions": "compared with mild heat shock of young cells", "procedure": "Human lung fibroblasts IMR90 which underwent either 12-17 divisions (\"young\" cells) or 62-67 divisions (\"old\" cells) were grown in MEM medium supplemented with 20% bovine fetal serum and 2mM glutamine. The cells were seeded at a density of 1.105 cells/35 mm plate and grown at 37° C. in an atmosphere of 95% air and 5% CO2. Cultures were split when cell density reached confluency. MG132 was purchased from Biomol Res Lab, Inc, PA. Anti-Hsp72 antibody (SPA810) was from StressGene Biotechnologies Corp (Canada).\n(§1) Young and old cells were incubated with either […] of MG132 for 5 hours, washed with PBS and incubated in a fresh medium for an additional 12 hours."}, "[2]": {"tested_on": "JNK", "experiment": "JNK activation by heat shock in IMR90 cells pretreated with MG132", "format": "cell-based, Human", "procedure": "as §1\nJNK activity was assayed using GST-c-Jun protein as a substrate after immunoprecipitation with anti-JNK1 antibodies (sc-474, Santa Cruz Biotechnology, Inc., CA). Briefly, cells were lysed in a buffer containing 20 mm Tris-HCl, pH 7.4, 50 mm NaCl, 2 mm EDTA, 1% Triton X-100, 25 mm b-glycerophosphate, 10 mm NaF, 1 mm Na3VO4, and protease inhibitors (1 mm PMSF and 25 mg/ml each of aprotenin, pepstatin, leupeptin). After immunoprecipitation with anti-JNK1 antibody and protein A-sepharose for 2 h at 4° C. and washing, kinase reaction was carried out in a buffer containing 25 mm HEPES, 10 mm MgCl2, 2 mm DTT, 25 mm b-glycerophosphate, 2 mm Na3VO4 and 25 mCi 32P-g-ATP at 37° C. for 10 min. Then the samples were subjected to SDS-PAGE followed by transfer to a nitrocellulose membrane and autoradiography. This membrane was later used for immunoblot with anti-JNK1 antibody to ensure that equal amounts of the kinase were immunoprecipitated."}, "[3]": {"tested_on": "Human lung fibroblasts IMR90", "experiment": "Heat-induced apoptosis in IMR90 cells", "format": "cell-based", "conditions": "young and old IMR90 cells pretreated with MG132", "procedure": "as §1\nYoung and old cells were subjected to heat shock at 45° C. for different time periods followed by incubation at 37° C. After 24 hours cells were stained with Hoechst 33342 according to manufacturer's specifications."}, "[4]": {"tested_on": "Hsp72", "experiment": "Hsp72 induction in U937 cells", "format": "cell-based, human", "design": "accumulation of Hsp72: dose or concentration left out as unconfirmed", "conditions": "for levels of Hsp72: incubation of U937 cells with the compound", "procedure": "(§2) U937 human lymphoid tumor cells were grown in RPMI-1640 medium with 10% fetal bovine serum and were used for experiments while in the mid log-phase (3-7.105 cells/ml). 293 human cells were grown in DMEM medium with 10% fetal bovine serum and were used in transient transfection experiments while at 40% of confluence. MG132 was purchased from Biomol Res Lab, Inc, PA. aLLN was purchased from Sigma, MO. MG132 analogs were synthesized and purified by HPLC. Anti-hsp72 antibody (SPA810) was from StressGene Biotechnologies Corp (Canada), anti-p53 antibody (PAb1801) was from SantaCruz Biotechnology, Inc, Calif."}, "[5]": {"tested_on": "JNK", "experiment": "JNK assay in U937 cells", "format": "cell-based, human", "design": "JNK activation by the compound itself: dose or concentration left out as unconfirmed", "procedure": "as §2\nJNK activity was assayed using GST-c-Jun protein as a substrate after immunoprecipitation with anti-JNK1 antibodies (sc-474, Santa Cruz Biotechnology, Inc., Calif.), or anti-HA antibody for transfected JNK (Berkley Antibody Company). Briefly, cells were lysed in a buffer containing 20 mM Tris-HCl, pH 7.4, 50 mM NaCl, 2 mM EDTA, 1% Triton X-100, 25 mM b-glycerophosphate, 10 mM NaF, 1 mM Na3VO4, and protease inhibitors (1 mM PMSF and 25 mg/ml each of aprotenin, pepstatin, leupeptin). After immunoprecipitation with anti-JNK1 or anti-HA antibody and protein A-sepharose for 2 h at 4° C. and washing, kinase reaction was carried out in a buffer containing 25 mM HEPES, 10 mM MgCl2, 2 mM DTT, 25 mM b-glycerophosphate, 2 mM Na3 VO4 and 25 mCi 32P-g-ATP at 37° C. for 10 min. Samples were then subjected to SDS-PAGE followed by transfer to a nitrocellulose membrane and autoradiography. This membrane was later used for immunoblot with anti-JNK1 antibody to ensure that equal amounts of the kinase were immunoprecipitated. p38 kinase activity was determined by Western blot with polyclonal antibody (New England Biolabs, MA) specifically recognizing the phosphorylated (active) form of p38. Later the same blot was treated with anti-p38 antibody (New England Biolabs, Mass.) to assure equal loading of the kinase on different lanes."}, "[6]": {"tested_on": "U937 human lymphoid tumor cells", "experiment": "Apoptosis / cell death of U937 cells", "format": "cell-based", "design": "induction of apoptosis by the compound itself: dose or concentration left out as unconfirmed", "procedure": "as §2\nPARP degradation was followed by Western blotting with anti-PARP monoclonal antibodies (C2-10, G. Poirier, Montreal, Canada). Apoptosis of 293 cells was detected by cleavage of a truncated form of Ul-70 kDa protein d12 (Romac, J. M. J. et al., Mol Cell Biol 14: 4662-4670 (1994)). Cells were transfected by calcium phosphate method with a plasmid encoding d12 tagged with T7 epitope alone or together with a dominant-negative mutant forms of SEK1 (K/R) or c-jun (TAM67). After 48 hours cells were either treated with […] MG132 or subjected to heat shock at 45° C. for 15 min. After additional 24 hours cells were lysed and cleavage of d12 was detected by Western blot with anti-T7 epitope antibody."}, "[7]": {"tested_on": "Hsp40", "experiment": "Hsp40 induction in U937 cells", "format": "cell-based, human", "conditions": "incubation of U937 cells with MG132", "procedure": "as §2"}, "[8]": {"tested_on": "Hsp27", "experiment": "Hsp27 induction in U937 cells", "format": "cell-based, human", "conditions": "incubation of U937 cells with MG132", "procedure": "as §2"}, "[9]": {"tested_on": "chymotrypsin-like activity of the proteasome", "conditions": "cited from earlier work; for Ki: slow binding inhibitors, Vinitsky et al."}}, "note": "Non-standard residues stand in square brackets, D forms with d. Residues, ends and D or L forms follow the SMILES beside them. *: point of attachment. Nle = CCCC[C@H](N)C(=O)O; Cbz = O=C(OCc1ccccc1)*", "data": [{"smiles": "CC(C)C[C@@H](C=O)NC(=O)[C@H](CC(C)C)NC(=O)[C@H](CC(C)C)NC(=O)OCc1ccccc1", "note": "[MG132] (Cbz-Leu-Leu-Leu-aldehyde)", "values": [{"measurement": "Hsp72 levels induced", "setting": "[1]", "result": "exceeded those triggered in young cells by a mild heat shock"}, {"measurement": "JNK activation by heat shock of various severity", "setting": "[2]", "result": "strongly suppressed in both young and old cells"}, {"measurement": "protection from heat-induced apoptosis", "setting": "[3]", "result": "protected from apoptosis"}, {"measurement": "accumulation of Hsp72", "setting": "[4]; after several hours of recovery", "result": "strong accumulation of Hsp72"}, {"measurement": "levels of Hsp72", "setting": "[4]", "result": "dramatically increase"}, {"measurement": "JNK activation by the compound itself", "setting": "[5]; followed by withdrawal", "result": "activated JNK only temporally"}, {"measurement": "JNK activation by severe heat shock", "setting": "[5]; pretreated versus untreated U937 cells", "result": "much lesser activation"}, {"measurement": "activation of JNK by TNF", "setting": "[5]; pretreatment with MG132", "result": "strongly suppressed"}, {"measurement": "activation of JNK by ethanol", "setting": "[5]; pretreatment with MG132", "result": "strongly suppressed"}, {"measurement": "induction of apoptosis by the compound itself", "setting": "[6]; followed by withdrawal", "result": "insufficient to induce apoptosis"}, {"measurement": "effect of long incubation on JNK and apoptosis", "setting": "[6]; long incubation of U937 cells", "result": "prolonged activation of JNK leading to apoptosis"}, {"measurement": "TNF-induced apoptosis", "setting": "[6]; pretreatment with MG132", "result": "did not rescue cells from TNF-induced apoptosis and even potentiated it"}, {"measurement": "cell death caused by ethanol", "setting": "[6]; pretreatment with MG132", "result": "suppressed cell death caused by ethanol"}, {"measurement": "extent of cell death after heat shock", "setting": "[6]; pretreatment with MG132, about 40% without pretreatment", "result": "negligible level"}, {"measurement": "induction of Hsp40", "setting": "[7]", "result": "appeared to be induced"}, {"measurement": "induction of Hsp27", "setting": "[8]", "result": "appeared to be induced"}]}, {"smiles": "CC(C)CC(C=CS(C)(=O)=O)NC(=O)C(CC(C)C)NC(=O)C(CC(C)C)NC(=O)Cc1cc(I)c(O)c([N+](=O)[O-])c1", "note": "(centres unmarked) [NIP-L3VS]", "values": [{"measurement": "levels of Hsp72", "setting": "[4]", "result": "dramatically increase"}]}, {"smiles": "CC(C)C[C@@H](C=O)NC(=O)CNC(=O)CNC(=O)OCc1ccccc1", "note": "[Z-Gly-Gly-Leu-H] (Cbz-Gly-Gly-Leu-aldehyde)", "values": [{"measurement": "inhibition of the chymotrypsin-like activity of the proteasome", "setting": "[9]; Orlowski 1990", "result": "inhibits the chymotrypsin-like activity of the proteasome"}]}, {"smiles": "CC(C)C[C@H](NC(=O)OCc1ccccc1)C(=O)N[C@@H](CC(C)C)C(=O)N[C@H](C=O)Cc1ccccc1", "note": "[Z-LLF-H, (benzyloxycarbonyl)-Leu-Leu-phenylalaninal] (Cbz-Leu-Leu-Phe-aldehyde)", "values": [{"measurement": "Ki", "setting": "[9]", "result": 0.46, "unit": "µM"}]}, {"smiles": "CC(C)C[C@H](NC(=O)[C@H](CC(C)C)NC(=O)[C@H](CC(C)C)NC(=O)OCc1ccccc1)C(N)=O", "note": "[Z-LLL-amide] (Cbz-Leu-Leu-Leu-NH2)", "values": [{"measurement": "levels of Hsp72", "setting": "[4]", "result": "did not lead to any significant induction"}]}, {"smiles": "CCOC(=O)C(=O)[C@H](Cc1ccccc1)NC(=O)[C@H](CC(C)C)NC(=O)[C@H](CC(C)C)NC(=O)OCc1ccccc1", "note": "[Z-Leu-Leu-Phe-COOEt]", "values": [{"measurement": "Ki", "setting": "[9]", "result": 53, "unit": "µM"}]}, {"smiles": "CCCC[C@@H](C=O)NC(=O)[C@H](CC(C)C)NC(=O)[C@H](CC(C)C)NC(C)=O", "note": "[aLLN] (Ac-Leu-Leu-[Nle]-aldehyde)", "values": [{"measurement": "levels of Hsp72", "setting": "[4]", "result": "dramatically increase"}]}, {"smiles": "CC(C)[C@H](O)[C@@]12NC(=O)[C@H](C)[C@@H]1OC2=O", "note": "[lactacystin-β-lacton]", "values": [{"measurement": "levels of Hsp72", "setting": "[4]", "result": "dramatically increase"}]}]}
